ChEMBL document CHEMBL3044797 (Crop Prot, 2008)
In brackets after ≈: the same amount, converted by molar mass.

Key:
Fusarium graminearum [1] = test: Fungicidal activity against carbendazim-resistant Fusarium graminearum isolate; format: functional, organism-based
Fusarium graminearum [2] = test: Fungicidal activity against compound-resistant Fusarium graminearum isolate; format: functional, organism-based

`CCOC(=O)/C(C#N)=C(/N)c1ccccc1` was tested, and the EC50 (Fusarium graminearum [1]) was 0.115 µg/mL (≈ 0.532 µM) and the EC50 (Fusarium graminearum [2]) was 0.14 µg/mL (≈ 0.647 µM).
